Assay results: article PMC4744035, “In Vivo, In Vitro, and In Silico Characterization of Peptoids as Antimicrobial Agents” (PLoS ONE, 2016)
Values after ≈ are worked out from the molar mass of the structure shown. Square brackets hold non-standard residues; d marks the D form. Peptide text beside a SMILES is read from it. Nspe = C[C@H](NCC(=O)O)c1ccccc1; Nlys = NCCCCNCC(=O)O

What was measured:
E. coli ATCC 35218 = format: cell-based
Procedure: MICs against B. subtilis and E. coli screening bacterial strains were determined using serial dilution in 96-well microtiter plates in accordance with CLSI M7-A6 protocols. Briefly, peptoid solution in cation-adjusted Mueller-Hinton broth was prepared by 2:1 serial dilution with a total volume of 50 µL per well. In experimental wells, 50 µL of bacterial inoculums (1 x 10^6 CFU/mL) were added to the peptoid solutions. Positive controls consisted of 50 µL inoculums added to 50 µL cation-adjusted Mueller-Hinton broth containing no peptoid, while negative controls contained only cation-adjusted Mueller-Hinton broth. […] Experiments were reproducible among three independent replicates, each consisting of two parallel trials.

erythrocytes = assay: Hemolytic activity (HD10/HD50); format: cell-based
Text: Table 1 Characteristics of antimicrobial peptoids, screened for activity against B. subtilis and E. coli bacterial strains. | column: HD10 / HD50

NIH 3T3 cells = assay: Metabolic activity, MTS assay; format: cell-based, mouse
Procedure: NIH 3T3 mouse fibroblast cells were cultured in complete Dulbecco’s Modified Eagle’s Media. A peptoid solution plate (100 µL per well) was prepared by serial dilution of aqueous peptoid stock solutions in Hank’s balanced salt solution. A day-old cell monolayer was washed thoroughly with Hank’s balanced salt solution and replenished with 100 µL Hank’s balanced salt solution per well. Peptoid solutions were transferred onto the day-old cell monolayers, which contained approximately 5000 cells per well. […] The average of six replicate trials is reported.

[1] = system: E. cloacae 218R Class C β-lactamase; assay: microbe, parasite or virus in culture; conditions: 218R Class C β-lactamase
Procedure: (§1) The MICs of test agents were measured using a modified broth micro-dilution method in Difco Mueller Hinton medium, on a panel of bacterial pathogens that were both susceptible and resistant to common antibiotics (S1 File). Briefly, serial dilutions were performed in 0.01% acetic acid containing 0.2% bovine serum albumin at 10-fold the desired final concentration. Ten μL of the 10-fold concentrated test reagents were added to each well of a 96-well polypropylene microtitre plate containing 90 μL of Mueller Hinton media per well. Bacteria were added to the plate from an overnight culture at a final concentration of 2–7 x 10^5 CFU/mL and incubated overnight at 37°C. The MIC is defined as the concentration at which no growth was observed.
(§2) Screening of peptoid antimicrobial activity against a panel of multidrug resistant superbugs was done according to the protocol described in the manuscript. The bacterial strains used in this panel included; P. aeruginosa PAO1 strain H103 [1], P. maltophilia ATCC#13637, S. aureus ATCC#25923 [1], E. faecalis ATCC#29212 [2], and E. cloacae 218R, constitutively expressing Class C chromosomal β-lactamase, were from the Hancock lab strains collection. An MRSA clinical isolate was kindly provided by Anthony Chow (Vancouver General Hospital, Vancouver, Canada). Two Klebsiella pneumoniae and two E. coli clinical isolates expressing extended spectrum β-lactamases (ESBL) were kindly provided by George Zhanel (Health Sciences Centre, Winnipeg, Canada). Vancomycin-resistant clinical isolates of Enterococcus faecalis and E. faecium were obtained from Ana M. Paccagnella (BC Centre for Disease Control, Vancouver, Canada). Three clinical isolates (#9, #198 and #213) of multi-drug resistant P. aeruginosa, were kindly provided by Carlos Kiffer (University of São Paulo, Brazil). […] Three P. aeruginosa clinical isolates of the Liverpool epidemic strain (LES) (H1027, H1030 and LES400) were all kindly provided by Craig Winstanley (University of Liverpool, UK). […] All tested bacterial strains were categorized as biohazard level 2 pathogens.

E. coli 63103 (ESBL) = assay: microbe, parasite or virus in culture; conditions: 63103 (ESBL)
Procedure: as §1, §2

E. coli 64771 (ESBL) = assay: microbe, parasite or virus in culture; conditions: 64771 (ESBL)
Procedure: as §1, §2

E. faecalis ATCC29212 = assay: microbe, parasite or virus in culture; conditions: ATCC29212
Procedure: as §1, §2

E. faecalis F43559 (VRE) = assay: microbe, parasite or virus in culture; conditions: F43559 (VRE)
Procedure: as §1, §2

E. faecalis W61950 (VRE) = assay: microbe, parasite or virus in culture; conditions: W61950 (VRE)
Procedure: as §1, §2

E. faecium T62764 (VRE) = assay: microbe, parasite or virus in culture; conditions: T62764 (VRE)
Procedure: as §1, §2

E. faecium mic80 (VRE) = assay: microbe, parasite or virus in culture; conditions: mic80 (VRE)
Procedure: as §1, §2

[2] = system: K. pneumonia 61962 (ESBL); assay: microbe, parasite or virus in culture
Procedure: as §1, §2

[3] = system: K. pneumonia 63575 (ESBL); assay: microbe, parasite or virus in culture
Procedure: as §1, §2

P. aeruginosa 198 (MDR) = assay: microbe, parasite or virus in culture; conditions: 198 (MDR)
Procedure: as §1, §2

P. aeruginosa 213 (MDR) = assay: microbe, parasite or virus in culture; conditions: 213 (MDR)
Procedure: as §1, §2

P. aeruginosa 9 (MDR) = assay: microbe, parasite or virus in culture; conditions: 9 (MDR)
Procedure: as §1, §2

[4] = system: P. aeruginosa H1027 (MDR); assay: microbe, parasite or virus in culture; conditions: H1027 (MDR)
Procedure: as §1, §2

[5] = system: P. aeruginosa H103 (wild type); assay: microbe, parasite or virus in culture; conditions: H103 (wild type)
Procedure: as §1, §2

[6] = system: P. aeruginosa H1030 (MDR); assay: microbe, parasite or virus in culture; conditions: P. aeruginosa H1030 (MDR)
Procedure: as §1, §2

[7] = system: P. aeruginosa LES400 (MDR); assay: microbe, parasite or virus in culture; conditions: LES400 (MDR)
Procedure: as §1, §2

P. maltophilia ATCC13637 = assay: microbe, parasite or virus in culture; conditions: ATCC13637
Procedure: as §1, §2

S. aureus ATCC25923 = assay: microbe, parasite or virus in culture; conditions: ATCC25923
Procedure: as §1, §2

S. aureus C623 (MRSA) = assay: microbe, parasite or virus in culture; conditions: C623
Procedure: as §1, §2

SMILES	MIC E. coli (E. coli ATCC 35218)	HD10 (hemolytic activity) (erythrocytes)	HD50 (hemolytic activity) (erythrocytes)	ID50 (inhibitory dose, metabolic activity) (NIH 3T3 cells)	MIC [1]	MIC (E. coli 63103 (ESBL))	MIC (E. coli 64771 (ESBL))	MIC (E. faecalis ATCC29212)	MIC (E. faecalis F43559 (VRE))	MIC (E. faecalis W61950 (VRE))	MIC (E. faecium T62764 (VRE))	MIC (E. faecium mic80 (VRE))	MIC [2]	MIC [3]	MIC (P. aeruginosa 198 (MDR))	MIC (P. aeruginosa 213 (MDR))	MIC (P. aeruginosa 9 (MDR))	MIC [4]	MIC [5]	MIC [7]	other results
C[C@@H](c1ccccc1)N(CC(N)=O)C(=O)CN(CCCCN)C(=O)CN(CCCCN)C(=O)CN(C(=O)CN(C(=O)CN(CCCCN)C(=O)CN(C(=O)CN(CCCCN)C(=O)CN(CCCCN)C(=O)CN(C(=O)CN(C(=O)CNCCCCN)[C@@H](C)c1ccccc1)[C@@H](C)c1ccccc1)[C@@H](C)c1ccccc1)[C@@H](C)c1ccccc1)[C@@H](C)c1ccccc1 [1-NLys5,11, H-(NLys-Nspe-Nspe-NLys-NLys-Nspe)2-NH2] (H-[Nlys][Nspe][Nspe][Nlys][Nlys][Nspe][Nlys][Nspe][Nspe][Nlys][Nlys][Nspe]-NH2)	50 µM (≈ 87.7 µg/mL)	>100 / >100	>100 / >100	85 µM	32 µg/mL (≈ 18.3 µM)	128 µg/mL (≈ 73 µM)	32 µg/mL (≈ 18.3 µM)	256 µg/mL (≈ 146 µM)	256 µg/mL (≈ 146 µM)	256 µg/mL (≈ 146 µM)	8 µg/mL (≈ 4.56 µM)	16 µg/mL (≈ 9.13 µM)	256 µg/mL (≈ 146 µM)	128 µg/mL (≈ 73 µM)	8 µg/mL (≈ 4.56 µM)	8 µg/mL (≈ 4.56 µM)	64 µg/mL (≈ 36.5 µM)	0.13 µg/mL (≈ 0.0741 µM)	2 µg/mL (≈ 1.14 µM)	8 µg/mL (≈ 4.56 µM)	MIC [6]: 64 µg/mL (≈ 36.5 µM); MIC (P. maltophilia ATCC13637): 0.5 µg/mL (≈ 0.285 µM); MIC (S. aureus ATCC25923): 64 µg/mL (≈ 36.5 µM); MIC (S. aureus C623 (MRSA)): 64 µg/mL (≈ 36.5 µM)
C[C@H](NCC(=O)N(CCCCN)CC(=O)N(CC(=O)N(CCCCN)CC(=O)N(CCCCN)CC(=O)N(CC(=O)N(CC(=O)N(CCCCN)CC(=O)N(CC(=O)N(CCCCN)CC(=O)N(CCCCN)CC(=O)N(CC(=O)N(CC(=O)N(CCCCN)CC(=O)N(CC(N)=O)[C@@H](C)c1ccccc1)[C@@H](C)c1ccccc1)[C@@H](C)c1ccccc1)[C@@H](C)c1ccccc1)[C@@H](C)c1ccccc1)[C@@H](C)c1ccccc1)[C@@H](C)c1ccccc1)c1ccccc1 [1B15mer-NLys4,10, H-(Nspe-NLys-Nspe-NLys-NLys-Nspe)2-Nspe-NLys-Nspe-NH2] (H-[Nspe][Nlys][Nspe][Nlys][Nlys][Nspe][Nspe][Nlys][Nspe][Nlys][Nlys][Nspe][Nspe][Nlys][Nspe]-NH2)		>200 / >200	>200 / >200	16 µM		256 µg/mL (≈ 116 µM)			256 µg/mL (≈ 116 µM)	128 µg/mL (≈ 58.1 µM)	4 µg/mL (≈ 1.81 µM)	32 µg/mL (≈ 14.5 µM)	256 µg/mL (≈ 116 µM)		16 µg/mL (≈ 7.26 µM)						
C[C@H](NCC(=O)N(CCCCN)CC(=O)N(CC(=O)N(CCCCN)CC(=O)N(CCCCN)CC(=O)N(CC(=O)N(CC(=O)N(CCCCN)CC(=O)N(CC(=O)N(CCCCN)CC(=O)N(CCCCN)CC(=O)N(CC(N)=O)[C@@H](C)c1ccccc1)[C@@H](C)c1ccccc1)[C@@H](C)c1ccccc1)[C@@H](C)c1ccccc1)[C@@H](C)c1ccccc1)c1ccccc1 [1B-NLys4,10, H-(Nspe-NLys-Nspe-NLys-NLys-Nspe)2-NH2] (H-[Nspe][Nlys][Nspe][Nlys][Nlys][Nspe][Nspe][Nlys][Nspe][Nlys][Nlys][Nspe]-NH2)	50 µM (≈ 87.7 µg/mL)	>200 / >200	>200 / >200	83 µM	32 µg/mL (≈ 18.3 µM)	128 µg/mL (≈ 73 µM)	32 µg/mL (≈ 18.3 µM)	256 µg/mL (≈ 146 µM)	256 µg/mL (≈ 146 µM)	256 µg/mL (≈ 146 µM)	16 µg/mL (≈ 9.13 µM)	32 µg/mL (≈ 18.3 µM)	256 µg/mL (≈ 146 µM)	128 µg/mL (≈ 73 µM)	32 µg/mL (≈ 18.3 µM)	16 µg/mL (≈ 9.13 µM)	128 µg/mL (≈ 73 µM)	0.25 µg/mL (≈ 0.143 µM)	4 µg/mL (≈ 2.28 µM)	16 µg/mL (≈ 9.13 µM)	MIC (P. maltophilia ATCC13637): 0.25 µg/mL (≈ 0.143 µM); MIC (S. aureus ATCC25923): 256 µg/mL (≈ 146 µM); MIC (S. aureus C623 (MRSA)): 256 µg/mL (≈ 146 µM)
C[C@@H](c1ccccc1)N(CC(N)=O)C(=O)CN(CCCCN)C(=O)CN(C(=O)CN(C(=O)CN(CCCCN)C(=O)CN(C(=O)CN(C(=O)CN(CCCCN)C(=O)CN(C(=O)CN(C(=O)CNCCCCN)[C@@H](C)c1ccccc1)[C@@H](C)c1ccccc1)[C@@H](C)c1ccccc1)[C@@H](C)c1ccccc1)[C@@H](C)c1ccccc1)[C@@H](C)c1ccccc1 [Peptoid 1_11mer, H-(NLys-Nspe-Nspe)3-NLys-Nspe-NH2] (H-[Nlys][Nspe][Nspe][Nlys][Nspe][Nspe][Nlys][Nspe][Nspe][Nlys][Nspe]-NH2)	6.3 µM (≈ 10.4 µg/mL)	103	> 200	11 µM																	
